Experimental data reported in patent EP3360891B1, “CELL PENETRATING PEPTIDES OF HUMAN ORIGIN” (Karlsruher Institut für Technologie, priority 2017, dated 2018).
Ends that are not written are not given here. Peptide text beside a SMILES is read from it. * marks the point of attachment. 5FAM = O=C1OC2(c3ccc(O)cc3Oc3cc(O)ccc32)c2ccc(C(=O)*)cc21

How the values were obtained:
[1] = system: HaCaT keratinocyte cell line; experiment: Cellular uptake into HaCaT keratinocytes, flow cytometry; assay type: cell-based, human; details: for cellular translocation: 25µM carboxyfluorescein labeled peptide, 1 h, 37°C, medium without FBS, mean of six measurements; for cell uptake in comparison to SSL-25: 1 h incubation at a concentration of 25µM
Procedure: Cells (20,000 cells per well) were seeded in 24-well plates and allowed to grow in standard growth medium containing Fetal Bovine Serum (FBS) overnight to attain a confluency of 70%. On the following day, the medium was discarded and cells were washed with phosphate buffered saline. Subsequently the peptide was added at a final concentration of 25µM in culture medium without FBS. The cells were incubated with the peptides labeled with carboxyfluorescein at the N-terminus at 37°C, 5% CO2 for 1 h in the dark. Following incubation of the cells with the peptides, the cells were washed three times with phosphate buffered saline. Subsequently, the cells were trypsinized using 0.25% Trypsin-EDTA for 10 min at 37°C, 5% CO2 to allow the protease dependent degradation of adsorbed surface bound peptides and to allow the detachment of cells from the 24-well plate for further analysis.
The cellular uptake of peptides was assessed by flow cytometry. 5000 events per sample were recorded and analyzed in the flow cytometer. A mean of six measurements was plotted with standard deviations being represented by error bars. […] These peptides translocate in HaCaT cells more efficiently as compared to SSL-25 (31%), SSL-9 E5A D9K (28%) and SSL-9 E5K D9K (22%).

in vitro = details: human
Procedure: Said cells (7000 cells per well) were seeded in 96-well plate and were allowed to grow overnight in standard growth medium containing FBS. On the next day, the medium was discarded and the cells were washed thrice with phosphate buffered saline and incubated with the peptides at 10µM, 25µM, 50µM and 100µM in culture medium without FBS for 24 h at 37°C, 5% CO2. On the following day the cells were washed again with phosphate buffered saline. MTT reagent was added to cells at a final concentration of 1mg/ml in phosphate buffered saline and incubated for 2-4 h at 37°C, 5% CO2. Addition of MTT to the said cells yielded purple formazan crystals that were dissolved by addition of DMSO and the absorbance was measured at 570 nm.

[2] = Translocation into lipid vesicles (encapsulated chymotrypsin, Gly-Gln-Phe-Coumarin tag, method of Marks et al.); details: after 10 min, without Zn2+ ions, Figure 4B
Excerpt: Wimley, Spontaneous Membrane-Translocating Peptides by Orthogonal High-Throughput Screening, J Am Chem Soc, 133 (2011) 8995-9004].
In this method, the sequence Gly-Gln-Phe-Coumarin is C-terminally coupled to the peptides. Chymotrypsin is encapsulated in the vesicles, and this enzyme cuts the peptide between phenylalanine and coumarin. If accordingly labeled peptides penetrate into the vesicles, Chymotrypsin acts and cleaves the Phe-Coumarin bond which sets the coumarin free and causes a bathochromic shift of the fluorescence maximum of about 50 nm. which can be determined fluorimetrically.
Large unilamellar vesicles consisting of POPC / POPG 25:75 (mol:mol) were used in a concentration of 100 µM in buffer without or with 100 µM ZnSO4. […]

human erythrocytes = human erythrocytes 0.25 % hematocrit, 37 °C, 30 minutes, 2-fold dilutions from 1024 µM stock, relative to Triton X-100 lysis
Procedure: A concentrated solution of human erythrocytes was adjusted to a hematocrit of 0.5% by repeated washing with buffer solution (172 mM Tris-HCI, pH 7.6) and this diluted solution was equilibrated to 37 °C in a water bath.
The peptides were prepared as a 1024 µM stock solutions in buffer, added to the erythrocytes in sequential 2-fold dilutions and incubated at 37 °C for 30 minutes with occasional shaking.
The cells were centrifuged and the released hemoglobin in the supernatant was quantified using spectrophotometry. The obtained values were set in reference to the value obtained by complete lysis of all cells upon addition of Triton™ X-100.

Compound: CC(C)C[C@H](NC(=O)CNC(=O)[C@H](CCCCN)NC(=O)[C@H](C)NC(=O)[C@H](CC(C)C)NC(=O)[C@H](CC(C)C)NC(=O)[C@H](CO)NC(=O)[C@H](CO)NC(=O)c1ccc2c(c1)C(=O)OC21c2ccc(O)cc2Oc2cc(O)ccc21)C(=O)N[C@@H](CCCCN)C(=O)O [SSL-9 E5A D9K] (5FAM-SSLLAKGLK-OH; N-terminus and C-terminus assumed)
- cellular translocation [1]: 28%
- cell uptake in comparison to SSL-25 [1]: reduced but comparable uptake
- viability at 24 h, 100 µM (in vitro; HaCaT keratinocytes): 70%

Compound: CC(C)C[C@H](NC(=O)CNC(=O)[C@H](CCCCN)NC(=O)[C@H](CCCCN)NC(=O)[C@H](CC(C)C)NC(=O)[C@H](CC(C)C)NC(=O)[C@H](CO)NC(=O)[C@H](CO)NC(=O)c1ccc2c(c1)C(=O)OC21c2ccc(O)cc2Oc2cc(O)ccc21)C(=O)N[C@@H](C)C(=O)O [SSL-9 E5K D9A] (5FAM-SSLLKKGLA-OH; N-terminus and C-terminus assumed)
- cellular translocation [1]: 81.7%
- cell uptake in comparison to SSL-25 [1]: higher cell uptake in comparison to SSL-25
- viability at 24 h, 100 µM (in vitro): 70%

Compound: CC(C)C[C@H](NC(=O)CNC(=O)[C@H](CCCCN)NC(=O)[C@H](CCCCN)NC(=O)[C@H](CC(C)C)NC(=O)[C@H](CC(C)C)NC(=O)[C@H](CO)NC(=O)[C@H](CO)NC(=O)c1ccc2c(c1)C(=O)OC21c2ccc(O)cc2Oc2cc(O)ccc21)C(=O)N[C@@H](CCCCN)C(=O)O [SSL-9 E5K D9K] (5FAM-SSLLKKGLK-OH; N-terminus and C-terminus assumed)
- cellular translocation [1]: 22%
- cell uptake in comparison to SSL-25 [1]: reduced but comparable uptake
- viability at 24 h, 100 µM (in vitro): 70%

Compound: CC(C)C[C@H](NC(=O)CNC(=O)[C@H](CCCCN)NC(=O)[C@H](CCC(=O)O)NC(=O)[C@H](CC(C)C)NC(=O)[C@H](CC(C)C)NC(=O)[C@H](CO)NC(=O)[C@H](CO)NC(=O)c1ccc2c(c1)C(=O)OC21c2ccc(O)cc2Oc2cc(O)ccc21)C(=O)N[C@@H](CC(=O)O)C(=O)O [SSL-9, SSLLEKGLD] (5FAM-SSLLEKGLD-OH; N-terminus and C-terminus assumed)
- cellular translocation [1]: 50%
- cell uptake in comparison to SSL-25 [1]: higher cell uptake in comparison to SSL-25
- extent of translocation [2]: reduced translocation
- viability at 24 h, 100 µM (in vitro): 70%

Compound: CC(C)C[C@H](NC(=O)CNC(=O)[C@H](CCCCN)NC(=O)[C@H](CCC(=O)O)NC(=O)[C@H](CC(C)C)NC(=O)[C@H](CC(C)C)NC(=O)[C@H](CO)NC(=O)[C@H](CO)NC(=O)c1ccc2c(c1)C(=O)OC21c2ccc(O)cc2Oc2cc(O)ccc21)C(=O)N[C@@H](CC(=O)O)C(=O)NCC(=O)N[C@@H](C)C(=O)O [SSL-11, SSLLEKGLDG A] (5FAM-SSLLEKGLDGA-OH; N-terminus and C-terminus assumed)
- cellular translocation [1]: 70%
- cell uptake in comparison to SSL-25 [1]: higher cell uptake in comparison to SSL-25
- extent of translocation [2]: reduced translocation
- viability at 24 h, 100 µM (in vitro; HaCaT keratinocytes): 70%

Compound: CC(C)C[C@H](NC(=O)CNC(=O)[C@H](CCCCN)NC(=O)[C@H](CCC(=O)O)NC(=O)[C@H](CC(C)C)NC(=O)[C@H](CC(C)C)NC(=O)[C@H](CO)NC(=O)[C@H](CO)NC(=O)c1ccc2c(c1)C(=O)OC21c2ccc(O)cc2Oc2cc(O)ccc21)C(=O)N[C@@H](C)C(=O)NCC(=O)N[C@@H](C)C(=O)N[C@@H](CCCCN)C(=O)N[C@@H](CCCCN)C(=O)O [SSL-13 D9A, SSLLEKGLAG AKK] (5FAM-SSLLEKGLAGAKK-OH; N-terminus and C-terminus assumed)
- cellular translocation [1]: 81.5%
- cell uptake in comparison to SSL-25 [1]: higher cell uptake in comparison to SSL-25
- viability at 24 h, 100 µM (in vitro; HaCaT keratinocytes): 70%

Compound: CC(C)C[C@H](NC(=O)CNC(=O)[C@H](CCCCN)NC(=O)[C@H](CCC(=O)O)NC(=O)[C@H](CC(C)C)NC(=O)[C@H](CC(C)C)NC(=O)[C@H](CO)NC(=O)[C@H](CO)NC(=O)c1ccc2c(c1)C(=O)OC21c2ccc(O)cc2Oc2cc(O)ccc21)C(=O)N[C@@H](CC(=O)O)C(=O)NCC(=O)N[C@@H](C)C(=O)N[C@@H](CCCCN)C(=O)N[C@@H](CCCCN)C(=O)O [SSL-13, SSLLEKGLDG AKK] (5FAM-SSLLEKGLDGAKK-OH)
- cellular translocation [1]: 48%
- cell uptake in comparison to SSL-25 [1]: higher cell uptake in comparison to SSL-25
- extent of translocation [2]: able to penetrate lipid membranes very efficiently
- viability at 24 h, 100 µM (in vitro): 70%

Compound: SSLLEKGLDGAKKAVGGLGKLGKDAVEDLESVGKGAVHDVKDVLDSVL [DCD-1L, SSLLEKGLDGAKKAVGGLGKLGKDAVEDLESVGKGAVHDVKDVLDSVL]
- hemolysis (human erythrocytes): no hemolysis
